Measurements reported in patent US10940139B2, “Compounds that interact with the Ras superfamily for the treatment of cancers, inflammatory diseases, rasopathies, and fibrotic disease” (Shy Therapeutics LLC, priority 2017, dated 2021).

What follows are compounds tested on MAPK phosphorylation in PANC-1 pancreatic cancer cell line (assay: MAPK cell-based phosphorylation assay (cell-direct ELISA, EGF stimulation)). Conditions: Homo sapiens, * = tested at 10 μM.
Method: Cell lines: Tumor-derived pancreatic cancer cell lines PANC-1 were purchased from ATCC and were maintained according to ATCC recommendation.
Method: Cells were plated at 7500 cells/well density in 96-wells plate, starved over night, and the small molecules to be tested were added to the cells in the final concentration of 30 μM with 0.3% DMSO for 6 hours incubation at 37° C. For IC50 value determination, serial dilutions of compounds were added to cells under the same conditions. Next, cells were stimulated with 1.5 ng/ml EGF for 15 min. followed by cell fixation with 4% Formaldehyde in PBS at RT for 20 min. Phosphorylation level of MAPK was determined by Cell-direct ELISA.
Cell-direct ELISA: For each well, cells were permeabilized with PBS-Triton 0.1%, quenched with H2O2 0.6% in PBS-Triton 0.1%, and probed with anti-phospho-MAPK antibodies (R&D Systems) followed by HRP-conjugated secondary antibody (Jackson Immunoresearch, West Grove, Pa.). Next, a solution 50 μM of the fluorescent substrate AmpliFlu Red (Sigma) was added and incubated at RT for 20 min. At the end of the incubation time, fluorescence was measured at 595 nm on a microplate reader (AF2200; Eppendorf, Inc., Hamburg, Germany).
Work on `Nc1nc(-c2ccccn2)nc2c(-c3ccccn3)csc12` yielded an inhibition at 10 µM of 76 to 100%.
Compound `COc1ncc(CCC(=O)Nc2nc(-c3ccccn3)nc3sccc23)cn1` has an inhibition at 10 µM of 76 to 100%.
With `Cc1sc2c(O)nc(-c3nccn3C)nc2c1-c1cccc(OC(F)(F)F)c1` the inhibition at 10 µM was 25 to 50%.

Each compound was assayed on MIA-PACA2 pancreatic cancer cell lines (assay: Cell proliferation assay (CellTiter 96 AQueous One)). Conditions: Homo sapiens, MIA PaCa-2; MIA-PACA2, same assay as the % inhibition (standard conditions).
Type: cell-based
`CN(C)Cc1ccc(-c2csc3c(O)nc(-c4ccccn4)nc23)cc1F` [drawing 1721] was tested, and the IC50 was 100 to 500 nM.
`CC(C)(C)c1ccc(-c2csc3c(O)nc(-c4ccccn4)nc23)cc1` [drawing 1723] showed an IC50 of 100 to 500 nM.
`Oc1nc(-c2ccccn2)nc2c(-c3cc(Cl)cc(Cl)c3)csc12` [drawing 1724] was tested, and the IC50 was 100 to 500 nM.
`Oc1nc(-c2ccccn2)nc2c(-c3cccc4c3OCO4)csc12` [drawing 1725] showed an IC50 of 100 to 500 nM.

Same assay, conditions: Homo sapiens, MIA PaCa-2; at 30 μM, MIA-PACA2
Work on `O=C(c1csc2c(O)nc(-c3ccccn3)nc12)N1CCC(c2ccncc2)C1` (stereo not shown) [drawing 1715] yielded an inhibition at 30 µM of 76 to 100%.
`O=C(c1csc2c(O)nc(-c3ccccn3)nc12)N1CCC(c2cccc(O)c2)C1` (stereo not shown) [drawing 1716] showed an inhibition at 30 µM of 76 to 100%.
Compound `O=C(c1cc2nc(-c3ccccn3)nc(O)c2s1)N1CCN(c2ccccc2)CC1` [drawing 1717] has an inhibition at 30 µM of 76 to 100%.
In the case of `O=C(c1cc2nc(-c3ccccn3)nc(O)c2s1)N1CCOC(c2ccccc2)C1` (stereo not shown) [drawing 1718], the inhibition at 30 µM was 76 to 100%.
Compound `O=C(NCCc1cccnc1)c1cc2nc(-c3ccccn3)nc(O)c2s1` [drawing 1719] has an inhibition at 30 µM of 76 to 100%.
`Cc1ccc(OC2CCCC2)c(-c2csc3c(O)nc(-c4ccccn4)nc23)c1` [drawing 1720] gave an inhibition at 30 µM of 76 to 100%.
Compound `CN(C)Cc1ccc(-c2csc3c(O)nc(-c4ccccn4)nc23)cc1F` [drawing 1721] has an inhibition at 30 µM of 76 to 100%.
Work on `CC(C)(C)c1ccc(-c2csc3c(O)nc(-c4ccccn4)nc23)cc1` [drawing 1723] yielded an inhibition at 30 µM of 76 to 100%.
Work on `Oc1nc(-c2ccccn2)nc2c(-c3cc(Cl)cc(Cl)c3)csc12` [drawing 1724] yielded an inhibition at 30 µM of 76 to 100%.
With `Oc1nc(-c2ccccn2)nc2c(-c3cccc4c3OCO4)csc12` [drawing 1725] the inhibition at 30 µM was 76 to 100%.
With `O=C(O)c1cc2nc(-c3ccccn3)nc(O)c2s1` [drawing 1726] the inhibition at 30 µM was 51 to 75%.
Work on `Oc1nc(-c2ccccn2)nc2sc3c(c12)CCNC3` [drawing 1727] yielded an inhibition at 30 µM of 76 to 100%.
Compound `Oc1nc(-c2ccccn2)nc2sc3c(c12)CCCNC3` [drawing 1728] has an inhibition at 30 µM of 25 to 50%.
Compound `COc1ccc(CCNC(=O)c2csc3nc(-c4ccccn4)nc(N4CCS(=O)(=O)CC4)c23)cn1` [drawing 1729] has an inhibition at 30 µM of 51 to 75%.
`O=C(NCCc1cnc(O)nc1)c1csc2nc(-c3ccccn3)nc(N3CCS(=O)(=O)CC3)c12` [drawing 1730] was tested, and the inhibition at 30 µM was 1 to 25%.
`N#Cc1ccc2c(c1)CCCC2C(=O)Nc1ccnc(-c2ccccn2)n1` (stereo not shown) [drawing 1731] was tested, and the inhibition at 30 µM was 76 to 100%.
Compound `Cc1cnc(-c2ccccn2)nc1NC(=O)Cc1ccc2cnccc2c1` [drawing 1732] has an inhibition at 30 µM of 76 to 100%.
`O=C(COCc1ccnc(O)c1)Nc1nc(-c2ccccn2)nc2sccc12` [drawing 1733] was tested, and the inhibition at 30 µM was 51 to 75%.
Compound `O=C(c1csc2c(O)nc(-c3ccccn3)nc12)N1CCNC(c2cn[nH]c2)C1` (stereo not shown) [drawing 1734] has an inhibition at 30 µM of 1 to 25%.
`Nc1nc(-c2ccccn2)nc2c(-c3ccccc3)csc12` [drawing 1735] showed an inhibition at 30 µM of 76 to 100%.
Compound `Oc1nc(-c2ccccn2)nc2c(-c3cc(F)ccc3OC(F)F)csc12` [drawing 1736] has an inhibition at 30 µM of 76 to 100%.
Compound `Cn1nnc2ccc(-c3csc4c(O)nc(-c5ccccn5)nc34)cc21` [drawing 1737] has an inhibition at 30 µM of 76 to 100%.
For `Oc1nc(-c2ccccn2)nc2c(-c3ccc(OC4CCOC4)cc3)csc12` (stereo not shown) [drawing 1738], the inhibition at 30 µM was 76 to 100%.
With `Oc1nc(-c2ccccn2)nc2c(-c3ccc(OC4CCCC4)cc3)csc12` [drawing 1739] the inhibition at 30 µM was 76 to 100%.
`O=S1(=O)CCN(Cc2cccc(-c3csc4c(O)nc(-c5ccccn5)nc34)c2)CC1` [drawing 1740] gave an inhibition at 30 µM of 76 to 100%.
Compound `Oc1nc(-c2ccccn2)nc2c(-c3ccc(C4CCC4)cc3)csc12` [drawing 1741] has an inhibition at 30 µM of 76 to 100%.
For `Oc1nc(-c2ccccn2)nc2c(-c3ccccc3OC3CCCCC3)csc12` [drawing 1742], the inhibition at 30 µM was 76 to 100%.
With `Oc1nc(-c2ccccn2)nc2c(-c3ccc(OC4CCOCC4)cc3)csc12` [drawing 1743] the inhibition at 30 µM was 76 to 100%.
Compound `Oc1nc(-c2ccccn2)nc2c(-c3ccccc3F)csc12` [drawing 1744] has an inhibition at 30 µM of 76 to 100%.
`COc1cc(C)c(-c2csc3c(O)nc(-c4ccccn4)nc23)cc1C` [drawing 1745] gave an inhibition at 30 µM of 76 to 100%.
`COc1ccccc1-c1csc2c(O)nc(-c3ccccn3)nc12` [drawing 1746] was tested, and the inhibition at 30 µM was 76 to 100%.
Work on `Oc1nc(-c2ccccn2)nc2c(-c3ccc(F)cc3F)csc12` [drawing 1747] yielded an inhibition at 30 µM of 76 to 100%.
`COc1cccc(-c2csc3c(O)nc(-c4ccccn4)nc23)c1` [drawing 1748] gave an inhibition at 30 µM of 76 to 100%.
With `COc1ccc(F)cc1-c1csc2c(O)nc(-c3ccccn3)nc12` [drawing 1750] the inhibition at 30 µM was 76 to 100%.
Compound `Oc1nc(-c2ccccn2)nc2c(-c3ccsc3)csc12` [drawing 1751] has an inhibition at 30 µM of 76 to 100%.
Compound `Oc1nc(-c2ccccn2)nc2c(-c3ccc(OC(F)F)cc3F)csc12` [drawing 1752] has an inhibition at 30 µM of 76 to 100%.
`Cc1cc(OC(F)F)ccc1-c1csc2c(O)nc(-c3ccccn3)nc12` [drawing 1754] was tested, and the inhibition at 30 µM was 76 to 100%.
In the case of `Oc1nc(-c2ccccn2)nc2c(-c3ccc4c(c3)OCO4)csc12` [drawing 1755], the inhibition at 30 µM was 76 to 100%.
`CC(C)(O)c1ccc(-c2csc3c(O)nc(-c4ccccn4)nc23)c(F)c1` [drawing 1756] gave an inhibition at 30 µM of 76 to 100%.
Compound `COc1ccc(-c2csc3c(O)nc(-c4ccccn4)nc23)c(C)c1` [drawing 1757] has an inhibition at 30 µM of 76 to 100%.
`Oc1nc(-c2ccccn2)nc2c(-c3ccc(CN4CCOCC4)cc3)csc12` [drawing 1758] showed an inhibition at 30 µM of 76 to 100%.
Work on `Oc1nc(-c2ccccn2)nc2c(-c3ccccc3C(F)F)csc12` [drawing 1759] yielded an inhibition at 30 µM of 76 to 100%.
Work on `COc1cc(-c2csc3c(O)nc(-c4ccccn4)nc23)cnc1C(F)(F)F` [drawing 1760] yielded an inhibition at 30 µM of 76 to 100%.
In the case of `CNC(=O)c1ccc(-c2csc3c(O)nc(-c4ccccn4)nc23)cc1C` [drawing 1761], the inhibition at 30 µM was 76 to 100%.
In the case of `OCC1(c2ccc(-c3csc4c(O)nc(-c5ccccn5)nc34)cc2)CC1` [drawing 1762], the inhibition at 30 µM was 76 to 100%.
With `Oc1nc(-c2ccccn2)nc2c(-c3ccc(OC4CCCCC4)cc3)csc12` [drawing 1763] the inhibition at 30 µM was 76 to 100%.
In the case of `Cc1cnccc1-c1csc2c(O)nc(-c3ccccn3)nc12` [drawing 1764], the inhibition at 30 µM was 76 to 100%.
Compound `O=C(CCc1nn[nH]n1)Nc1nc(-c2ccccn2)nc2sccc12` [drawing 1766] has an inhibition at 30 µM of 51 to 75%.
`O=C(CCc1cncnc1)Nc1nc(-c2ccccn2)nc2sccc12` [drawing 1767] was tested, and the inhibition at 30 µM was 76 to 100%.
Compound `Nc1nc(-c2ccccn2)nc2c(Br)csc12` [drawing 1768] has an inhibition at 30 µM of 25 to 50%.
Compound `Cc1sc2c(N)nc(-c3ccccn3)nc2c1Br` [drawing 1769] has an inhibition at 30 µM of 76 to 100%.
Compound `Nc1nc(-c2ccccn2)nc2scc(Br)c12` [drawing 1770] has an inhibition at 30 µM of 1 to 25%.
Work on `COC(=O)c1csc2nc(-c3ccccn3)nc(N)c12` [drawing 1771] yielded an inhibition at 30 µM of 76 to 100%.
Work on `COc1nccc(CCNC(=O)c2csc3nc(-c4ccccn4)nc(N4CCOCC4)c23)n1` [drawing 1773] yielded an inhibition at 30 µM of 76 to 100%.
In the case of `O=C(NCCc1ccnc(O)n1)c1csc2nc(-c3ccccn3)nc(N3CCOCC3)c12` [drawing 1774], the inhibition at 30 µM was 1 to 25%.
For `CN1CCN(c2nc(-c3ccccn3)nc3scc(C(=O)NCCc4cnc(O)nc4)c23)CC1` [drawing 1775], the inhibition at 30 µM was 25 to 50%.
`Oc1nc(-c2ccccn2)nc2c(-c3cc(F)cc(F)c3)csc12` [drawing 1776] gave an inhibition at 30 µM of 76 to 100%.
`CN(C)Cc1ccc(F)c(-c2csc3c(O)nc(-c4ccccn4)nc23)c1` [drawing 1777] was tested, and the inhibition at 30 µM was 76 to 100%.
With `Oc1nc(-c2ccccn2)nc2c(-c3ccc4c(c3)CCCO4)csc12` [drawing 1778] the inhibition at 30 µM was 76 to 100%.
With `CCn1nc(C)cc1-c1csc2c(O)nc(-c3ccccn3)nc12` [drawing 1779] the inhibition at 30 µM was 76 to 100%.
Work on `Oc1nc(-c2ccccn2)nc2c(-c3ccnn3-c3ccccn3)csc12` [drawing 1780] yielded an inhibition at 30 µM of 76 to 100%.
Compound `Cc1sc2c(O)nc(-c3ccccn3)nc2c1-c1ccccc1` [drawing 1781] has an inhibition at 30 µM of 76 to 100%.
With `Nc1nc(-c2ccccn2)nc2scc(C(=O)O)c12` [drawing 1782] the inhibition at 30 µM was 1 to 25%.
Work on `COC(=O)c1cc2nc(-c3ccccn3)nc(O)c2s1` [drawing 1783] yielded an inhibition at 30 µM of 76 to 100%.
Compound `Oc1nc(-c2ccccn2)nc2c(-c3cnc4ccccc4c3)csc12` [drawing 1784] has an inhibition at 30 µM of 76 to 100%.
In the case of `Oc1nc(-c2ccccn2)nc2c(-c3ccc(Cl)c(Cl)c3)csc12` [drawing 1785], the inhibition at 30 µM was 76 to 100%.
For `Oc1nc(-c2ccccn2)nc2c(-c3cncc(F)c3)csc12` [drawing 1786], the inhibition at 30 µM was 76 to 100%.
For `Oc1nc(-c2ccccn2)nc2c(-c3cc(C(F)(F)F)ccc3F)csc12` [drawing 1787], the inhibition at 30 µM was 76 to 100%.
Work on `Oc1nc(-c2ccccn2)nc2c(-c3cncc(C(F)(F)F)c3)csc12` [drawing 1788] yielded an inhibition at 30 µM of 76 to 100%.
Compound `Cc1cncc(-c2csc3c(O)nc(-c4ccccn4)nc23)c1` [drawing 1789] has an inhibition at 30 µM of 76 to 100%.
In the case of `Cc1sc2c(O)nc(-c3ccccn3)nc2c1-c1cccnc1` [drawing 1790], the inhibition at 30 µM was 76 to 100%.
Compound `COc1cnc(-c2ccccn2)nc1O` [drawing 1791] has an inhibition at 30 µM of 76 to 100%.
Work on `COc1cnc(C2CCCN2)nc1O` (stereo not shown) [drawing 1792] yielded an inhibition at 30 µM of 51 to 75%.
`COc1nc(-c2ccccn2)nc2c(C3CCCC3)csc12` [drawing 1793] gave an inhibition at 30 µM of 76 to 100%.
In the case of `CCC(C)c1csc2c(OC)nc(-c3ccccn3)nc12` (stereo not shown) [drawing 1794], the inhibition at 30 µM was 76 to 100%.
